Laboratory results from US5723463A, “Pyrido [3,2-E]pyrazinones with anti-asthmatic action and processes for their manufacture” (ASTA Medica Aktiengesellschaft, priority 1995, dated 1998).

Assays:
PDE IV = PDE IV inhibition (in vitro), cAMP-specific PDE of cytosol of human polymorphonuclear leucocytes; type: biochemical; conditions: substrate 0.5 μM cAMP, motapizon 1 μM
Description: (§1) Phosphodiesterase (PDE) activity is determined with a few modifications (Bauer, A. C.; Schwabe, U., An improved assay of cyclic 3',5'-nucleotide phosphodiesterase with QAE Sephadex A-25. Naunyn-Schmiedeberg's Arch. Pharmacol. 311 193-198 (1980)) after the method described by Thompson et al. (Thompson, W. J.; Appleman, M. M., Assay of cyclic nucleotide phosphodiesterase and resolution of multiple molecular forms of the enzyme. Adv. Cycl. Nucl. Res. 10 69-92 (1979)) The reaction mixture contains 40 mM Tris-HCl (pH 7.4), 5 mM MgCl2, 0.5 μM cAMP or cGMP, [^3 H]cAMP or [^3 H]cGMP (approx. 20,000 cpm/test) and the other components needed to record the individual isoenzymes (see below). The final volume is 200 μl. Test substances are prepared as stock solutions in DMSO. The DMSO concentration in the reaction mixture is the same or less than 1% v/v. The PDE activity is not influenced at this DMSO concentration. […] The radioactivity of the individual fractions is recorded using scintigraphy.
The PDE IV (cAMP-specific) activity is determined after the method described by Schudt et al. (Schudt C.; Winter S.; Forderkurz S.; Hatzelmann A.; Ullrich V., Influence of selective phosphodiesterase inhibitors on human neutrophil functions and levels of cAMP and Ca. Naunyn-Schmiedeberg's Arch. Pharmacol. 344, 682-690 (1991)) describe a method in the cytosol of human polymorpho-nuclear leucocytes. […]

PDE V = target: T1, PDE V (Homo sapiens, UniProt O76074); assay: PDE V inhibition (in vitro), cGMP-specific PDE isolated from human blood platelets; type: biochemical; conditions: substrate 0.5 μM cGMP
T1 construct: PDE V (cGMP-specific) is isolated from human blood platelets; from tissue; host or cells: human blood platelets
Description: as §1, with “concentration. After pre-incubation for 5 minutes at 37° C. the reaction is started by adding the substrate (cAMP or cGMP). The samples are incubated for a further 15 minutes at 37° C. The reaction is stopped by adding 50 μl 0.2N HCl. The samples remain in the ice for a further 10 minutes.” for “concentration.”, “scintigraphy. […]” for “scintigraphy.”

[1] = system: Histamine precontracted trachea; assay: Influence on the trachea precontracted using histamine; conditions: Cavia porcellus, guinea pig trachea
Description: Guinea pigs are exsanguinated under narcosis. The trachea is then prepared free from adjacent tissue and cut into five equal parts (at least 3 trachea-rings wide). The trachea parts are suspended in a bath filled with a nutrient solution (Krebs-Henseleit). The strength of contraction of the trachea can be measured using force transducers. After suspension, a 15-minute acclimatisation period is allowed. The trachea is then totally relaxed using isoprenaline (1×10^-7 mol/l). The bath vessel is then rinsed. A contraction maximum is triggered using metacholine (10×10^-5 mol/l). The bath vessel is then rinsed again. Histamine ([…]) is then added. The contraction maximum is reached after approx. 10 minutes. The test substance is then added to the bath in increasing concentration and the contraction-triggering effect determined in percent to an untreated control. The mean contraction-triggering concentration is calculated using regression apparatuses. To check the function of the organs, isoprenaline (1×10^-5 mol/l) is then added to the bath to see whether the organs are still able to relax.

[2] = system: Ovalbumin-induced eosinophilia; assay: Asthmatic late phase reaction: ovalbumin-induced eosinophilia in guinea pigs (BAL); type: in vivo, guinea pig; conditions: 1 mg/kg i.p., 2 hours before allergen challenge, BAL 24 hours after
Description: Male guinea pigs (250-300 g, Pirbright white, Charles River Wiga) are actively sensitised by s.c. injection of ovalbumin (10 μg+100 mg aluminium hydroxide) and boosted 2 weeks later. One week after the boosting (10 μg+100 mg aluminium hydroxide) the animals are exposed of an aerosol of nebulised 0.5 % ovalbumin solution for 20 seconds. 24 hours later, the bronchoalveolar lavage (BAL) is carried out using 2×5 ml sodium chloride solution on animals sacrificed with an overdose of pentobarbital. The lavage liquid is pooled and centrifuged for 10 minutes. The cell pellet is suspended in 1 ml physiological sodium chloride solution and the eosinophils are counted microscopically in a counting chamber using a Becton-Dickinson eosinophil kit. The eosinophils are counted for each guinea pig. The mean value is calculated for each group. The inhibition of the eosinophils for the group treated with substance is obtained using the formula:
(A-C)-(B-C)/(A-C)×100=% inhibition
A=Eosinophils in the untreated control group challenged with ovalbumin
B=Eosinophils in the group treated with the substance and challenged with ovalbumin
C=Eosinophils in the control group not challenged with ovalbumin
The substance was applied 2 hours before allergen challenge p,o, (in 1% methocel) or i.p. (in 0.5% methocel). The control groups receive 1% methocel p.o. or 0.5% methocel i.p. 2 hours before allergen challenge.

- IC50 (PDE IV): 100 nM
- IC50 (PDE V): 95 nM
- IC50 [1]: 700 nM
Structure (SMILES): CCCn1c(=O)c2c(C)nc(CC)n2c2nc(OC)ccc21 [embodiment 1, 1-ethyl-8-methoxy-3-methyl-5-propyloimidazo[1,5-a]pyrido[3,2-e]-pyrazinone]
- Ovalbumin-induced eosinophilia: % inhibition of eosinophils [2]: 74%
